Experimental data: US6379658B1, “Human sweat malodor counteractant composition and process for using same” (International Flavors & Fragrances Inc., priority 1999, dated 2002)

Assay: Human sweat malodor neutralization (jar method), headspace rated by trained panel using Magnitude Estimation
Details: single fragrance ingredient; % Reduction=100×[1-(malodor intensity/total intensity)]
Method: Malodor neutralization is evaluated by placing a specified amount of malodor into an uncapped, 1 ounce wide-mouth jar. This jar is placed into an 8 ounce wide-mouth jar containing a specified amount of test material or finished fragrance. The quantities of malodor and fragrance are dependent on the specific malodor model used. The 8 ounce jar is capped and allowed to equilibrate. The panelists then rate the headspace for (1) total intensity, (2) malodor intensity and (3) overall like/dislike (hedonics). They are provided with an identified sample of malodor as a reference. Each group of samples presented to the panel contains an unidentified positive control (a fragrance material with no malodor), two unidentified negative controls (malodor with no fragrance) and up to twelve test samples (each fragrance is presented in duplicate or triplicate).
It is to be noted that evaluations are carried out by panelists who have been extensively screened for their olfactory acuity and trained in the method of evaluation (Magnitude Estimation). Panelist performance is constantly monitored and reviewed.
All samples are coded with random 5-digit numbers. Panelists are instructed to select samples from the test set and evaluate them in a random order.
The results of these experiments are expressed in terms of malodor reduction (neutralization), change in overall intensity and improvement in hedonics.
The percent malodor reduction is calculated as:
% Reduction=100×[1-(malodor intensity/total intensity)]
or shown thusly: [formula]
wherein wherein RMOL represents malodor reduction; iMO is malodor intensity; and iT represents total intensity.
The following protocol has been developed to determine the level of odor neutralization:
1. A predetermined quantity of the malodor model is measured with a micropipette into an uncapped 1 oz. wide-mouth jar. This jar is subsequently placed into an 8 oz. wide-mouth jar containing a predetermined quantity of the test material. The 8 oz. jar is capped and allowed to equilibrate prior to evaluation;
2. […] Each judge is also presented with an identified sample of the malodor in order to reinforce the malodor discrimination task;
3. Each of the judges rate the headspace for (a) total odor intensity, (b) malodor intensity and (c) the overall like/dislike (hedonics) of the sample; and […]

Molecule | % Human Sweat Malodor Coverage [% reduction]
CC(=O)CCc1ccccc1 [Benzyl acetone, benzyl acetone] | 96
CC(=O)c1ccc2ccccc2c1 [Methyl β-naphthalene ketone, methyl β-naphthyl ketone] | 96
COc1ccc2ccccc2c1 [β-Naphthyl methyl ether, β-naphthyl methyl ether] | 92
CC(=O)C(C)=CC1C(C)=CCCC1(C)C (centres unmarked) [γ-Methyl ionone, 4-(2,6,6-trimethyl-2-cyclohexen-1-yl)-3-methyl-3-buten-2-one] | 93
mixture of hexahydro4,7-methanoinden-5-yl propionate and hexahydro-4,7-methanoinden-6-yl propionate [CYCLAPROP ™] | 91
